Data as given in PubChem BioAssay AID2060503 (Molecular Pharmacology Branch, DTP, NCI, 2025).
Several values for one entry are separate records, joined by “and”; a condition that tells them apart may be missing. Equal entries are not always repeated.

Test system: 817829-284-R-J1-PDC complex spheroids, viability
Test: Anticancer human tumor 817829-284-R-J1-PDC patient-derived colon adenocarcinoma cell line growth inhibition [GQUAD]
Conditions: for viability, T/C: stronger effect = lower value
Excerpt: DNA G-quadruplex Stabilizer Agents in Combinations in Complex Spheroids
A high-throughput screen of multi-cell type tumor spheroids was designed to identify active combinations of DNA G-quadruplex stabilizer agents and targeted small molecules. Complex spheroids include a stromal component modeled by human endothelial cells (HUVEC) and fibroblasts modeled by human mesenchymal stem cells (MSCs). The concentration ranges selected for each drug and investigational agent were based upon clinically achievable concentrations if the clinical Cmax of the agent was known.
Compounds. The drugs and investigational agents: pidnarulex (CX-5461; NSC782164), APTO-253 (NSC789042), BRACO-19 (NSC847499), peposertib (NSC802822), ceralasertib (NSC780249), elimusertib (NSC800525), camonsertib (NSC841442), AZD-1390 (NSC803789), olaparib (NSC753686), talazoparib (NSC767125), ART-558 (NSC835418), sotorasib (NSC818433), MRTX-1133 (NSC836407), SN-38 (NSC673596), topotecan (NSC609699), etoposide (NSC141540), doxorubicin (NSC123127), gemcitabine (NSC613327), 5-fluorouracil (NSC19893), paclitaxel (NSC125973), vemurafenib (NSC761431), panobinostat (NSC761190), R-306465 (JNJ-16241199; NSC773264), adavosertib (NSC754352), TP-3654 (NSC805149), carboplatin (NSC241240), KSQ-4279 (NSC840948), and staurosporine (NSC755774) were obtained from the National Cancer Institute (NCI) Developmental Therapeutics Program Chemical Repository (34). The FDA-approved anticancer drug set is available from the NCI Developmental Therapeutics Program. […] The stock solutions were prepared in dimethyl sulfoxide (DMSO, Sigma-Aldrich, St. Louis, MO, cat. D2650) at 800-fold the tested concentration and stored at -70 degrees C prior to their use. All drugs and investigational agents were tested over a range starting from a high concentration at or near the clinical Cmax and decreasing in half-log increments. If the clinical Cmax for an agent had not been determined, the highest concentration tested was 10 microM.
2.3 Cell Culture. All cells were maintained in an incubator at 37 degrees C and 5% CO2 with 95% humidity. The PDC lines were cultured according to standard operating procedures established by the NCI PDMR. All PDCs were thawed and cultured in Matrigel-coated flasks prepared with a working solution of 1X Ham's F-12 nutrient mix, without supplementation (Invitrogen, cat. 11765054), 100 U/mL penicillin-streptomycin (Invitrogen, cat. 15140122), and 2.5% Matrigel (Corning Inc., cat. 354248) for the first three passages. The 857933-349-R-J2-PDC line was cultured in 6C/Colon 1B media, which includes advanced DMEM/F-12 (Thermo Fisher Scientific, cat. 12634028), 10 mM HEPES (Thermo Fisher Scientific, cat. 15630080), 1X GlutaMAX supplement (Thermo Fisher Scientific, cat. 35050061), 0.1 mg/mL primocin (InvivoGen, cat. ant-pm-2), 10% defined fetal bovine serum, heat inactivated (HyClone Laboratories Inc., cat. SH30070.03HI), 50% L-WRN conditioned media (ATCC, cat. CRL-3276), 1.25 mM N-Acetyl-L-cysteine (Sigma-Aldrich, cat. A9165), 10 mM nicotinamide (Sigma-Aldrich, cat. N0636), 1X B-27 supplement (Thermo Fisher Scientific, cat. 17504044), 1X N-2 supplement (Thermo Fisher Scientific, cat. 17502048), 10 microM Y-27632 dihydrochloride (Tocris Bioscience, cat. 1254), and 50 ng/mL human EGF recombinant protein (Thermo Fisher Scientific, cat. PHG0311). The 485176-168-R4-J1-PDC line was cultured in Panc media, which includes all 6C/Colon 1B media components plus 100 ng/mL human FGF-10 (Thermo Fisher Scientific, cat. 100-26), 500 nM SB-431542 (Selleckchem, cat. S1067), and gastrin (Tocris, cat. 3006).
[…]
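Note: spheroids exposed to agents for 7 days before readout.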
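Throughout, for viability, T/C: percent viability relative to DMSO vehicle control taken as 100%.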

`C#Cc1c(F)ccc2cc(O)cc(-c3ncc4c(N5CC6CCC(C5)N6)nc(OCC56CCCN5CC(F)C6)nc4c3F)c12` (stereo unspecified) was tested, and the viability, T/C (compound 0.0316 µM) was 103% and 97.4% and 94.3%, the viability, T/C (compound 0.1 µM) was 88.4% and 96.9% and 109% and the viability, T/C (compound 0.316 µM) was 99.2% and 102% and 103%. For the same compound, the viability, T/C (compound 1 µM) was 84.3% and 102% and 93.9%, the viability, T/C (compound 3.16 µM) was 110% and 95.8% and 102% and the viability, T/C (compound 10 µM) was 114% and 104% and 131%. For the same compound, the IC50 (curve of compound) was over 10 µM.

With `C=CC(=O)N1CCN(c2nc(=O)n(-c3c(C)ccnc3C(C)C)c3nc(-c4c(O)cccc4F)c(F)cc23)C(C)C1` (stereo unspecified) the viability, T/C (compound 0.0316 µM) was 94.6% and 98.7% and 113%, the viability, T/C (compound 0.1 µM) was 87.2% and 97.6% and 96.2% and the viability, T/C (compound 0.316 µM) was 96% and 99.3% and 113%. The viability, T/C (compound 1 µM) was 84.4% and 93.2% and 89.2%, the viability, T/C (compound 3.16 µM) was 108% and 102% and 112% and the viability, T/C (compound 10 µM) was 98.3% and 81.2% and 102%. For the same compound, the IC50 (curve of compound) was over 10 µM.

With `C=CCn1c(=O)c2cnc(Nc3ccc(N4CCN(C)CC4)cc3)nc2n1-c1cccc(C(C)(C)O)n1` the viability, T/C (compound 0.0316 µM) was 97.1% and 105% and 99.8%, the viability, T/C (compound 0.1 µM) was 95.4% and 102% and 93.9% and the viability, T/C (compound 0.316 µM) was 37.1% and 32.5% and 33.8%. The viability, T/C (compound 1 µM) was 7.67% and 9.37% and 5.53%, the viability, T/C (compound 3.16 µM) was 6.89% and 6.69% and 4.84% and the viability, T/C (compound 10 µM) was 5.09% and 5.85% and 4.19%. The IC50 (curve of compound) was 0.245 µM and 0.237 µM and 0.232 µM.

In the case of `CC(=O)O[C@H]1C(=O)[C@@]2(C)[C@H]([C@H](OC(=O)c3ccccc3)[C@]3(O)C[C@H](OC(=O)[C@H](O)[C@@H](NC(=O)c4ccccc4)c4ccccc4)C(C)=C1C3(C)C)[C@]1(OC(C)=O)CO[C@@H]1C[C@@H]2O`, the viability, T/C (compound 0.0316 µM) is reported as 5.56% and 11.2% and 8.51%, the viability, T/C (compound 0.1 µM) is reported as 5.44% and 6.01% and 3.69% and the viability, T/C (compound 0.316 µM) is reported as 5.01% and 4.83% and 4.1%. The viability, T/C (compound 1 µM) was 4.55% and 4.35% and 3.93%, the viability, T/C (compound 3.16 µM) was 3.56% and 3.34% and 3.72% and the viability, T/C (compound 10 µM) was 5.03% and 4.92% and 4.14%. For the same compound, the IC50 (curve of compound) was under 0.0316 µM.

With `CC(C)(O)C1CCC(Nc2ccc3ncc(-c4cccc(C(F)(F)F)c4)n3n2)CC1` (stereo unspecified) the viability, T/C (compound 0.0316 µM) was 99.8% and 97.4% and 104%, the viability, T/C (compound 0.1 µM) was 95.4% and 98.8% and 80.9% and the viability, T/C (compound 0.316 µM) was 106% and 104% and 101%. The viability, T/C (compound 1 µM) was 68.3% and 84.7% and 79%, the viability, T/C (compound 3.16 µM) was 50.6% and 46.8% and 19.7% and the viability, T/C (compound 10 µM) was 67.2% and 53% and 22.6%. For the same compound, the IC50 (curve of compound) was > 10 µM and 1.78 µM.

In the case of `CC(C)n1c(=O)n(C)c2cnc3cc(F)c(-c4ccc(OCCCN5CCCCC5)nc4)cc3c21`, the viability, T/C (compound 0.0316 µM) is reported as 106% and 107% and 100%, the viability, T/C (compound 0.1 µM) is reported as 101% and 102% and 97.5% and the viability, T/C (compound 0.316 µM) is reported as 95.1% and 105% and 102%. The viability, T/C (compound 1 µM) was 89.8% and 100% and 89.2%, the viability, T/C (compound 3.16 µM) was 104% and 113% and 101% and the viability, T/C (compound 10 µM) was 107% and 103% and 60.3%. It also gave an IC50 (curve of compound) of over 10 µM.

With `CC1COCCN1c1cc(-c2ccnn2C)c2ccnc(-c3ccn[nH]3)c2n1` (stereo unspecified) the viability, T/C (compound 0.0316 µM) was 67.1% and 49.9% and 63.2%, the viability, T/C (compound 0.1 µM) was 15.9% and 20.1% and 19.1% and the viability, T/C (compound 0.316 µM) was 8.87% and 9.11% and 9.13%. The viability, T/C (compound 1 µM) was 5.41% and 7.67% and 7.19%, the viability, T/C (compound 3.16 µM) was 5.54% and 7.47% and 5.88% and the viability, T/C (compound 10 µM) was 4.28% and 5.96% and 5.46%. For the same compound, the IC50 (curve of compound) was 0.0464 µM and < 0.0316 µM and 0.0444 µM.

`CC1COCCN1c1cc(C2(O)CC3CCC(C2)O3)c2cnn(-c3ccn[nH]3)c2n1` (stereo unspecified) was tested, and the viability, T/C (compound 0.0316 µM) was 39.5% and 42.2% and 31.3%, the viability, T/C (compound 0.1 µM) was 10.2% and 9.96% and 13.3% and the viability, T/C (compound 0.316 µM) was 7.94% and 8.95%. For the same compound, the viability, T/C (compound 1 µM) was 6.19% and 4.8% and 7.29%, the viability, T/C (compound 3.16 µM) was 5.19% and 5.01% and 5.9% and the viability, T/C (compound 10 µM) was 2.86% and 3.51% and 4.63%. It also gave an IC50 (curve of compound) of under 0.0316 µM.

With `CC1COCCN1c1cc(C2(S(C)(=N)=O)CC2)nc(-c2ccnc3[nH]ccc23)n1` (stereo unspecified) the viability, T/C (compound 0.0316 µM) was 112% and 93.9% and 91.7%, the viability, T/C (compound 0.1 µM) was 89.1% and 102% and 105% and the viability, T/C (compound 0.316 µM) was 93.1% and 88.9% and 90%. The viability, T/C (compound 1 µM) was 24.1% and 27.1% and 31.6%, the viability, T/C (compound 3.16 µM) was 11% and 9.68% and 11.2% and the viability, T/C (compound 10 µM) was 8.31% and 9.22% and 9.36%. For the same compound, the IC50 (curve of compound) was 0.649 µM and 0.654 µM and 0.697 µM.

`CCCS(=O)(=O)Nc1ccc(F)c(C(=O)c2c[nH]c3ncc(-c4ccc(Cl)cc4)cc23)c1F` was tested, and the viability, T/C (compound 0.0316 µM) was 117% and 113% and 109%, the viability, T/C (compound 0.1 µM) was 106% and 102% and 81.6% and the viability, T/C (compound 0.316 µM) was 110% and 103% (2×). For the same compound, the viability, T/C (compound 1 µM) was 92.1% and 92.8% and 79.2%, the viability, T/C (compound 3.16 µM) was 75.5% and 88.9% and 75.2% and the viability, T/C (compound 10 µM) was 21% and 22% and 16.1%. The IC50 (curve of compound) was 5.28 µM and 6.05 µM and 4.91 µM.

For `CC[C@@]1(O)C(=O)OCc2c1cc1n(c2=O)Cc2cc3c(CN(C)C)c(O)ccc3nc2-1`, the viability, T/C (compound 0.000999 µM) was 107% and 116% and 105%, the viability, T/C (compound 0.00316 µM) was 94.3% (2×) and 87.9% and the viability, T/C (compound 0.00999 µM) was 107% (2×) and 109%. For the same compound, the viability, T/C (compound 0.0316 µM) was 53.6% and 60.3% and 47.5%, the viability, T/C (compound 0.0999 µM) was 33.9% and 45.5% and 27.7% and the viability, T/C (compound 0.316 µM) was 26.1% and 37.7% and 29.7%. The IC50 (curve of compound) was 0.0376 µM and 0.0595 µM and 0.0301 µM.

In the case of `CCc1c2c(nc3ccc(O)cc13)-c1cc3c(c(=O)n1C2)COC(=O)[C@]3(O)CC`, the viability, T/C (compound 0.000999 µM) is reported as 63% and 65.3% and 63.2%, the viability, T/C (compound 0.00316 µM) is reported as 26.9% and 40% and 26.7% and the viability, T/C (compound 0.00999 µM) is reported as 24.7% and 33% and 30.2%. For the same compound, the viability, T/C (compound 0.0316 µM) was 15.5% and 21.2% and 14.7%, the viability, T/C (compound 0.0999 µM) was 9.08% and 10.2% and 7.65% and the viability, T/C (compound 0.316 µM) was 5.27% and 4.91% and 3.96%. For the same compound, the IC50 (curve of compound) was 0.00158 µM and 0.00231 µM and 0.00163 µM.

`CN(C)c1ccc(Nc2c3ccc(NC(=O)CCN4CCCC4)cc3nc3cc(NC(=O)CCN4CCCC4)ccc23)cc1` was tested, and the viability, T/C (compound 0.0316 µM) was 102% [middle of 12 runs], the viability, T/C (compound 0.1 µM) was 99.2% [middle of 12 runs] and the viability, T/C (compound 0.316 µM) was 97.7% [middle of 12 runs]. The viability, T/C (compound 1 µM) was 102% [middle of 12 runs], the viability, T/C (compound 3.16 µM) was 100% [middle of 12 runs] and the viability, T/C (compound 10 µM) was 93.7% [middle of 12 runs]. It also gave an IC50 (compound alone, run of 02/26/2024) of over 10 µM.
